Like-named read-outs stand apart in the source and are kept apart here.
Assays:
Sonnenblume Linie BK-373 = assay: field test of chemical sterilisation of sunflower pollen; format: in vivo
Text: (§1) Die gametozide Aktivität der erfindungsgemäßen Sterilisationsmittel war in Feldversuch in verschiedenen bodenklimatischen Zonen mit Teilstücken von 10 m^2 Größe in drei-- bis viermaliger Wiederholung nachgewiesen. Jedes Sterilisationsmittel wurde mindestens 5 Jahre lang geprüft.
(§2) Die Entwicklung der Perioden der Organogenese wird zytologisch überwacht. Die Behandlung von Pflanzen mit dem Sterilisationsmittel erfolgt am Anfang der fünften Periode der Organogenese nach Kupermann.
Zur Kontrolle der chemischen Sterilisation des Sonnenblumenpollens werden für jede Verbindung 45 behandelte Pflanzen jeder Wiederholung benutzt, wobei 15 Pflanzen zwecks Selbsbestäubung isoliert werden, Blutenkörbchen von 15 anderen Pflanzen mit einem Pollengemisch, gesammelt von 20 bis 25 behandelten isolierten Körbchen, bestäubt werden, und 15 Pflanzen für freie Bestäubung gelassen werden, damit das Ansetzen von Achänen mit dem Pollen der Vaterform kontrolliert werden kann.
Man beurteilt die Pollensterilität von Pflanzen der Sonnenblume nach der Pollenfertilität und -keimfahigkeit, nach den morphologischen Besonderheiten von Spermien und nach der Fähigkeit von Achänen zum Ansetzen bei der Bestäubung der behandelten isolierten Pflanzen mit dem Pollen der unbehandelten väterlischen Form. Die Läbensfähigkeit der Eizelle wird nach der Samenbildung bei behandelten Pflanzen bei freier Bestäubung der väterlichen Form bestimmt.
Die Sonnenblume Linie BK-373 werden mit einer 0,2%igen wäßrigen Emulsion von Phthalsäuredibutylester, 0,1%igen wäßrigen Emulsion von Kaliumsalz der 2-Methyl-3-zyklohexylkar- bonsäuremethylester und 0,2%igen wäßrigen Emulsion von Phthalsäurediäthylester behandelt. Die Emulsion enthält 0,01 Masse% Dodezylsulfat und 0,1 Masse% C12-C14-Kalziumalkylbenzolsulfonat.
Als Kontrolle in allen Fällen dienen Pflanzen, behandelt mit einem Verdünner ohne Sterilisationsmittel.

[1] = acute toxicity in animals; parameters: species or system weiße Ratten; settings: rat, in vivo
Text: (§3) Alle erfindungsgemäßen Karbonsäurederivate, die als Sterilisationsmittel zur Verwendung kommen, waren auf die akute Toxizität im Tierversuch geprüft. Die Prüfergebnisse haben ergeben, daß die angegebenen Verbindungen von schwacher oder mittlerer Toxizität sind.

[2] = system: diploidem Roggen Sorte Belorusskaya 23; assay: field test of gametocidal activity (sterilisation of anthers); format: in vivo; settings: V. und VI. Periode, 1%ige wäßrige Emulsion, 6 kg/ha; for Prozentsatz des Ansetzens der Körner bei freier Bestäubung: control = 100
Text: as §1, §2
Mit dem Ahrenschieben verwirklicht man die Isolierung von Hauptähren und anderen Stockwerken in Pergamentbeuteln. Bei Weizen und Tritikale werden Einzelisolatoren verwendet. Bei Roggen schließt man je 1 Ähre von 5 bis 7 verschiedenen nebeneinander befindlichen Pflanzen in einen gemeinsamen Isolator ein. Bei Hirse wird jede Rispe getrennt isoliert. Der Sterilitätsprozentsatz (X) für Weizen, Roggen, Tritikale und Hirse wird nach der Formel [formula]
Samen von unbehandelten Kontrollpflanzen ermittelt.
Die Kornzahl in nicht isolierten Ähren von Kontrollpflanzen wird bedingt für 100% Ansetzen bei freier Bestäubung angenommen.
Um zuverlässige Angaben zu erhalten, verwendet man 20 bis 25 Isolatoren jeder Wiederholung für Weizen und Tritikale, 10 bis 15 Isolatoren jeder Wiederholung für Roggen und Hirse.
Pflanzen von diploidem Roggen Sorte Belorusskaya 23 werden in der V. und VI. Periode der Organogenese (nach Kupermann) mit einer 1%igen wäßrigen Emulsion von Phthalsäuredibutylester, Kaliumsalz der 2-Methyl-3-zyklohexenkarbonsäure behandelt. Die Emulsion enthält 0,01 Masse% Dodezylsulfat, und 0,1 Masse% C12-C14-Kalziumalkylbenzolsulfonat.
Der Verbrauch an Präparat beträgt 6 kg/ha. Als Kontrolle dienen Pflanzen, behandelt mit einem Verdünner ohne Sterilisationsmittel.

[3] = acute toxicity in animals; settings: mouse, in vivo, po; weiße Mäuse; einmalige Einführung in den Magen
Text: as §3

[4] = Präparat 0,01 Masse%, 0,06 kg/ha

## CC1C=CCCC1C(=O)[O-].[K+] (stereo not shown) [Beispiel 114, Kaliumsalz der 2-Methyl-3-zyklohexenkarbonsäure]
Sonnenblume Linie BK-373; Präparat 0,1 Masse%, 0,6 kg/ha
  Ansetzen der Achänen bei freier Bestäubung: 62,9
  Prozentsatz der Sterilität: 100,0%

## CC1C=CCCC1C(=O)O (stereo not shown) [Kaliumsalz der 2-Methyl-3-zyklohexenkarbonsäure]
[1]
  LD50: 7660 mg/kg

## CCCCOC(=O)c1ccccc1C(=O)OCCCC [Beispiel 113, Phthalsäuredibutylester]
Sonnenblume Linie BK-373; Präparat 0,2 Masse%, 1,2 kg/ha
  Ansetzen der Achänen bei freier Bestäubung: 61,5
  Prozentsatz der Sterilität: 100,0%

## CCOC(=O)c1ccccc1C(=O)OCC [Beispiel 116, Phthalsäurediäthylester]
Sonnenblume Linie BK-373; Präparat 0,2 Masse%, 1,2 kg/ha
  Ansetzen der Achänen bei freier Bestäubung: 64,6
  Prozentsatz der Sterilität: 100,0%

## CC1C=CCCC1C(=O)O (stereo not shown) [Beispiel 75, Kaliumsalz der 2-Methyl-3-zyklohexenkarbonsäure]
[2]
  Kornzahl der Ähre bei freier Bestäubung: 43,0
  Kornzahl der Ähre im Isolator: 0,0
  Prozentsatz der Sterilität: 100,0%
  Prozentsatz des Ansetzens der Körner bei freier Bestäubung: 95,0%

## CCCCOC(=O)c1ccccc1C(=O)OCCCC [Beispiel 74, Phthalsäuredibutylester]
[2]
  Kornzahl der Ähre bei freier Bestäubung: 42,5
  Kornzahl der Ähre im Isolator: 0,0
  Prozentsatz der Sterilität: 100,0%
  Prozentsatz des Ansetzens der Körner bei freier Bestäubung: 94,9%

## CCCCOC(=O)c1ccccc1C(=O)OCCCC [Phthalsäuredibutylester]
[3]
  LD50: 2840 mg/kg
[1]; weiße Ratten, einmalige Einführung in den Magen (route printed for Phthalsäuredibutylester), read-out: LD50
  LD50: 6670 mg/kg

## COC(=O)C1CCC=CC1C (stereo not shown) [Beispiel 115, 2-Methyl--3-zyklohexenkarbonsäuremethylester]
Sonnenblume Linie BK-373; [4]
  Ansetzen der Achänen bei freier Bestäubung: 65,7
  Prozentsatz der Sterilität: 100,0%

— patent EP0364581A1, “METHOD OF STERILIZING PLANT POLLEN” (VSESOJUZNY NAUCHNO-ISSLEDOVATELSKY INST. SELSKOKHOZYAISTV. …, priority 1988, dated 1989)
